Laboratory results reported in patent US20030220521A1, “Renal-selective prodrugs for control of renal sympathetic nerve activity in the treatment of hypertension” (G.D. Searle & Co., priority 1989, published 2003).

What was measured:
[1] = system: rats, heart and kidneys; experiment: Assay X: catecholamine analysis of heart and kidney tissue after 5 days of infusion; format: in vivo, rat
Protocol: Following 5 days of infusion, the kidney was exposed through a small flank incision, made in the anesthetized rat, and the renal artery and vein were ligated. Following this the kidney was rapidly excised distal to the ligation and frozen in liquid nitrogen. Similarly, the heart was excised and frozen subsequent to the removal of both kidneys. The frozen tissues were stored in closed containers at −80° C. Tissue samples were thawed on ice and their weight recorded prior to being placed in a flat bottom tube. The cold extraction solvent (2 ml/g tissue) was then added and the sample was homogenized with a Polytron. Extraction Solvent: 0.1 M perchloric acid (3 ml of 70% PCA to 500 ml); 0.4 mM Na metabisulphite (38 mg/500 ml). The volume was then measured and 0.05 ml of a 1 uM/L solution of dihydroxybenzylamine (DHBA) in extraction solvent was added for every 0.95 ml of homogenate to yield a 50 nM/L internal standard concentration. The homogenate was then mixed and centrifuged at 4° C., 3000 rpm for 35 minutes. A 2 ml aliquot of the supernatant was then neutralized by adding 0.5 ml of 2 M Tris, pH 8.8 and mixing. The sample was then placed on an alumina column (40 mg, Spe-ed CAT cartridge; Applied Separations; Bethlehem, Pa.) and the catecholamines were bound, washed and eluted using a vacuum manifold system (Adsorbex SPU, EM Science, Cherry Hill, N.J.) operating at ca. 4 ml/min. until the column was dry. Washes of 1 ml H20—0.5 ml MeOH—1 ml H20 were followed by elution with 1 ml of extraction solvent. A 200 μl sample of the eluant was injected onto a C-18 reversed phase analytical HPLC column, 5 um, 4.6 mm×250 mm (e.g., Beckman #235335, LKB 2134-630 Spherisorb ODS-2) and eluted with a recycled mobile phase run at ambient temperature and a flow rate of 0.5 ml/min (ca. 75 bar). Mobile Phase: 0.02 M Na2HP04 in 75/25(v/v) H20/MeOH 0.007% SDS pH 3.5 (conc. H3P04). The separated catecholamines were detected with a LKB 2143 electrochemical detector at a potential setting of 500 mV using a teflon flow cell spacer of 2.2 μl and a time constant of 2 sec. Peak heights were measured and recorded along with the chromatogram tracing using a Spectra-Physics 4270 integrator. […] The resulting factor (calculated for each sample) was used to correct for losses due to dilution, non-specific binding to the tissue precipitate, incomplete elution, etc. Concentrations were calculated by multiplying the peak heights for Epi, NE and DA by that samples correction factor and then dividing this value by the peak height of the respective standard. […] This value is multiplied by the volume of the homogenate (determined previously) to get the total catecholamine content of the tissue expressed in moles/g tissue. […]

[2] = system: SHR; experiment: Assay VIII: chronic 5 day i.v. infusion, mean arterial pressure in SHR; format: in vivo, rat; details: for chronic effect on mean arterial pressure compared to vehicle: SHR, 5 day infusion, Ex. #859 5 mg/hr, fusaric acid 2.5 mg/hr
Protocol: The Ex. #859 conjugate and saline vehicle were infused continuously for 5 days in SHR. Mean arterial pressure was measured (Gould Chart Recorder, model 3800; Statham P23Db pressure transducer) via an indwelling femoral artery catheter between 10:00 a.m. and 2:00 p.m. each day. The Ex. #859 conjugate (5 mg/hr), fusaric acid (2.5 mg/hr), and saline (100 μ1/hr) were infused via a jugular vein catheter with a Harvard infusion pump.

[3] = system: spontaneously hypertensive rats; experiment: Assay VI: acute in vivo effects on mean arterial pressure and renal blood flow in anesthetized SHR (i.v. or i.d.); set-up: species or system rat; details: for MAP / RBF / acute effect on mean arterial pressure / acute effect on renal blood flow: 50 mg/kg i.v.
Protocol: Spontaneously hypertensive rats were anesthetized with inactin (100 mg/kg, i.p.) and catheters were implanted into a carotid artery for measurement of mean arterial pressure (Gould model 3800 chart recorder; Statham pressure transducer model no. P23DB) and into a jugular vein for compound administrations (i.v. or i.d.). In addition, a flow probe was implanted around the left renal artery for measurement of renal blood flow using pulsed Doppler flowmetry. Rats were allowed 60 min to stabilize before 10 minutes of control recordings of mean arterial pressure and renal blood flow were obtained. Control measurements were followed by intravenous injection of 50 mg/kg of fusaric acid or the Ex. #859 conjugate. […] The Ex. #859 conjugate had no effect on mean arterial pressure at a dose of 100 mg/kg (n=4) during a 60 minute observation period. Renal blood flow (n=4) was unchanged 15 minutes after injection of the Ex. #859 conjugate but increased from 1.1 KHz (control period) to 3.5 KHz at 30 minutes postinjection.

[4] = system: Spontaneously Hypertensive Rats (SHR); experiment: Assay VII: acute effects on arterial pressure in anesthetized SHR; format: in vivo, rat; details: for Mean arterial pressure: i.v.: fusaric acid and fusaric acid hydrazide 100 mg/kg, Ex. #859 250 mg/kg
Protocol: Mean arterial pressure effects of fusaric acid hydrazide (100 mg/kg, i.v.), fusaric acid (100 mg/kg, i.v.) and Ex. #859 conjugate (250 mg/kg, i.v.) are shown in Table XXVII during a vehicle control period and 60 min post-injection of compound in anesthetized SHR. Rats were prepared as described above, minus the renal artery flow probe.

[5] = anesthetized SHR, 60 minute observation

| SMILES | heart norepinephrine concentration relative to vehicle [1] | kidney norepinephrine concentration relative to vehicle [1] | chronic effect on mean arterial pressure compared to vehicle [2] | MAP ([3]; 15 min) [mm Hg] | RBF ([3]; 15 min) [KHz] | MAP ([3]; 30 min) [mm Hg] | RBF ([3]; 30 min) [KHz] | MAP ([3]; 45 min) [mm Hg] | RBF ([3]; 45 min) [KHz] | MAP ([3]; 60 min) [mm Hg] | RBF ([3]; 60 min) [KHz] | MAP ([3]; time zero (control)) [mm Hg] | RBF ([3]; time zero (control)) [KHz] | acute effect on mean arterial pressure [3, 5] | acute effect on renal blood flow [3, 5] | Mean arterial pressure ([4]; 60 MIN post-injection) [mmHg] | Mean arterial pressure ([4]; ZERO (vehicle control period)) [mmHg] | further results |
| --- | --- | --- | --- | --- | --- | --- | --- | --- | --- | --- | --- | --- | --- | --- | --- | --- | --- | --- |
| CCCCc1ccc(C(=O)NNC(=O)CCC(NC(C)=O)C(=O)O)nc1 [Ex. #859, N-acetyl-L-glutamic acid, 5-[(5-butyl-2-pyridinyl)-carbonyl]hydrazide] | only fusaric acid decreased heart norepinephrine concentration | decreased kidney norepinephrine concentration | lowered mean arterial pressure similarly | 163 | 3.8 | 164 | 4.0 | 157 | 4.6 | 159 | 4.8 | 156 | 2.4 | no acute effects | increased renal blood flow to a greater degree than fusaric acid | 146 ± 15 | 151 ± 9 | MAP (SE) ([2]; 5 mg/hr i.v. infusion, day 1): 122 ± 9 mm Hg; MAP (SE) ([2]; 5 mg/hr i.v. infusion, day 2): 115 ± 9 mm Hg; MAP (SE) ([2]; 5 mg/hr i.v. infusion, day 3): 119 ± 11 mm Hg; MAP (SE) ([2]; 5 mg/hr i.v. infusion, day 4): 121 ± 7 mm Hg; MAP (SE) ([2]; 5 mg/hr i.v. infusion, day 5): 115 ± 8 mm Hg; MAP (SE) ([2]; 5 mg/hr i.v. infusion, day zero): 146 ± 5 mm Hg; Renal blood flow change ([3]; anesthetized SHR, i.d. 100 mg/kg, 15 minutes after injection): unchanged; Renal Blood Flow ([3]; anesthetized SHR, i.d. 100 mg/kg, 30 minutes postinjection): 3.5 KHz; effect on mean arterial pressure ([3]; anesthetized SHR, i.d. 100 mg/kg, 60 minute observation): no effect; Renal Blood Flow ([3]; anesthetized SHR, i.d. 100 mg/kg, control period): 1.1 KHz; Renal blood flow course ([3]; anesthetized SHR, i.d. 100 mg/kg, following 30 minute observation period (30-60 min)): remained at this level; hypotensive effect / effect on mean arterial pressure ([4]; i.v., 60 min post-injection): no effect |
| CCCCc1ccc(C(=O)O)nc1 [Fusaric Acid, 5-n-butylpicolinic acid] | decreased heart norepinephrine concentration | decreased kidney norepinephrine concentration | lowered mean arterial pressure similarly | 111 | 3.1 | 106 | 3.2 | 103 | 3.4 | 99 | 3.9 | 155 | 2.5 | decreased mean arterial pressure | increased renal blood flow | 110 ± 21 | 164 ± 10 | MAP (SE) ([2]; 2.5 mg/hr i.v. infusion, day 1): 118 ± 5 mm Hg; MAP (SE) ([2]; 2.5 mg/hr i.v. infusion, day 2): 114 ± 7 mm Hg; MAP (SE) ([2]; 2.5 mg/hr i.v. infusion, day 3): 122 ± 5 mm Hg; MAP (SE) ([2]; 2.5 mg/hr i.v. infusion, day 4): 114 ± 6 mm Hg; MAP (SE) ([2]; 2.5 mg/hr i.v. infusion, day 5): 114 ± 3 mm Hg; MAP (SE) ([2]; 2.5 mg/hr i.v. infusion, day zero): 148 ± 6 mm Hg |
